Measured values as given in paper PMC11868579 (Nature Communications, 2024).
Several values for one entry are separate records, joined by “and”; a condition that tells them apart may be missing. Identical values can stand only once.

Experiments:
[1] = tested on: cap-dependent and cap-independent (IRES) protein synthesis; test: Bicistronic protein synthesis reporter in H1299 cells; type: cell-based, human; settings: H1299; 100 μM, 24 hr; normalisation not stated
Experimental: H1299 cells were transfected with a biscistronic vector using Lipofectamine 3000 transfection reagent (Fisher Scientific, cat#L3000008) for 24 hr and then treated with compounds for further 24 h. Luminescence was measured after 24 h of compound treatment using the Dual Glo luciferase reporter assays as above.

c-Myc-activity = test: c-Myc-regulated luciferase reporter in SW620 cells; type: cell-based, human; design: CMV, Average / c-Myc, Average: unit not given here; settings: for c-Myc, Average / CMV, Average: SW620; for c-Myc, Average: c-Myc-regulated firefly luciferase reporter; for CMV, Average: constitutive CMV promoter-regulated renilla luciferase reporter
Experimental: Luminescence was measured using the Dual-glo luciferase assay (mean ± SEM from 3 biological replicates). b SW620 cells were transfected with a c-Myc-regulated firefly luciferase expression reporter or a constitutive CMV promoter-regulated renilla luciferase reporter. Cells were treated for 24 hr with 1 or 10 µM compound 4 or the […] kinase inhibitor AZD8055 as positive control (mean ± SEM from 3 biological replicates). An ordinary one-way ANOVA with Tukey multiple comparisons test was performed comparing c-Myc-regulated firefly luciferase expression or CMV-regulated Renilla luciferase expression following the different treatments. For c-Myc-regulated firefly luciferase expression, all significant p values […]
were <0.0001. […]
Source data is located in the Supplementary Source Data file

[2] = molecular target: T1, eIF4E minor variant D127N (N127) (Homo sapiens, UniProt P06730, D127N); test: Isothermal titration calorimetry, eIF4E minor variant; type: binding; settings: for Kd: ITC; for Kd / LE (ligand efficiency): minor variant D127N
T1 construct: made in house; host or cells: E. coli BL21-CodonPlus (DE3)-RIPL
T1 sequence (P06730 36-217 D127N): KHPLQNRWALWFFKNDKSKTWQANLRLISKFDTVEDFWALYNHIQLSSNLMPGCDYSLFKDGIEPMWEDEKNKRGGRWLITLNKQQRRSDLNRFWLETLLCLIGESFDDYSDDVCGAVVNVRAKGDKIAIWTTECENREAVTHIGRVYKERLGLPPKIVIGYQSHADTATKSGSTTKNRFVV
Experimental: ITC experiments were performed on either a MicroCal VP-ITC or a MicroCal Auto-ITC200 at 25 °C in a buffer comprising 50 mM HEPES, 100 mM NaCl, 1 mM TCEP and 5% DMSO at pH 7.5. Typical titrations on the MicroCal VP-ITC were performed using 17 × 16.4 µL injections with a 250 s spacing between each injection and with a stirring speed of 307 rpm. Typical titrations on the MicroCal Auto-ITC200 were performed using 12 × 3 µL injections with a 150 s spacing between each injection and with a stirring speed of 750 rpm. ITC data analyses were performed with Origin 7.0 software using the “One Set of Sites” model.

MCL1 protein expression = test: Immunoblot of MCL1 in eIF4E-dTAG clones and rescue models; type: cell-based, human; settings: eIF4E-dTAG clones
Experimental: One sample t and Wilcoxon tests (two-sided), using 100% as hypothetical control value, were performed and compared with the control in each cell line. b, c Real-time cell growth measurements monitored every 4 h over a 6-day period. Cell confluency (%) was calculated using Incucyte Zoom software and (mean ± SEM n = 3 biological replicates). Ordinary one-way ANOVA with Tukey multiple comparisons test compared treatment with the control in each cell line. […] Vinculin was used as loading control. H1299 (PAR) cell lines were treated with 1 μM dTAG^V-1 only as qualitative control. Vinculin was used as loading control. […] Significant p-values (< 0.05) are shown on the plots and the source data is located in the Source Data file.
After seeding overnight in 6 well plates (Corning, cat#353046), cells were treated with compounds for the indicated times and concentration, harvested and the cell pellet lysed on ice in cell lysis buffer (Cell Signaling, cat#9803), supplemented with 1x Halt^TM protease inhibitor cocktail (Fisher Scientific, cat#78429) and cOmplete^TM protease inhibitor cocktail (Sigma-Aldrich, cat#11836153001) for 1 hr. Protein was quantified using BCA protein kit (Fisher Scientific, cat#23225). Western blot was performed using NuPAGE^TM 4–12% Bis-Tris gels (Fisher Scientific, cat#NP0336BOX) and transferred using the Invitrogen iBLOT^TM gel transfer device system (Fisher Scientific, Cat#IB21001). […] All primary antibodies were diluted (1:1000) in 5% BSA (Sigma-Aldrich, cat#A7906) in 1x TBS and 0.1% Tween 20 (Sigma-Aldrich, cat#P1379), except for vinculin (1:2000) that was diluted in casein blocker (Sigma-Aldrich, cat#1610782). This was followed by incubation with the secondary HRP-conjugated antibodies (anti-mouse HRP, Bio-rad, Watford, UK, cat#1705047; anti-rabbit HRP, Sigma-Aldrich, cat#NA934) in casein for 1 h at RT. ECL HRP substrate (SuperSignalTM West Pico, Fisher Scientific, cat#34578) was then added to detect protein targets by chemiluminescence and images acquired using the ChemiDocTM system (Bio-Rad). Quantitative densitometry analysis of protein bands was performed using Image J v1.53 software.

[3] = tested on: H1299 eIF4E-dTAG clones proteome; test: Global proteome profiling (DIA LC-MS/MS); type: cell-based, human; settings: 500 nM, 72 hr
Experimental: Cells (1 × 10^5 cells/ml) were lysed using SDS-free lysis and the lysate made up to 1 mL. Disulphide bounds were disrupted by reduction and alkylation. DTT was added to sample with a final concentration of 10 mM and incubated at 37 °C for 30 min. Iodoacetamide was then added to sample with a final concentration of 55 mM and incubated in the dark at room temperature for 30 min. The protein mixture was then enriched through a solid phase (SPE) C18 column. The C18 column was activated with 1 ml methanol at a rate of 3 drops/second, followed by 1 ml 0.1% formic acid to condition the column. The diluted protein mixture was loaded onto the column at 1 drop/sec, the column was washed with 3 ml 0.1% formic acid and enriched proteins were eluted with 800 μl 75% acetonitrile at a rate of 0.5 drops per second and the eluate was freeze-dried. The freeze-dried proteins were redissolved in 20 μl 50 mM ammonium bicarbonate and quantified according to the manufacturer’s instructions (Pierce Quantitative Fluorometric Peptide Assay cat# 23290). A small aliquot was removed for PAGE QC analysis on a 12% polyacrylamide gel. The remainder of the protein samples were digested with trypsin at a ratio of 1:20 for enzyme and proteins (w/w). The mixture was incubated for 14–16 h at 37 °C.
For DDA (Data Dependent Acquisition) library construction (Nano-LC-MS/MS) the dried peptide samples were reconstituted with mobile phase A (2% ACN, 0.1% FA), centrifuged at 20,000 g for 10 minutes, and the supernatant was taken for injection. Separation was carried out by a Thermo UltiMate 3000 UHPLC liquid chromatograph. […] The main parameters were set: ion source voltage was set to 1.9 kV, MS1 mass spectrometer scanning range was 350 ~ 1650 m/z; resolution was set to 120,000; maximal injection time (MIT) 90 ms; MS/MS collision type HCD, collision energy NCE 30; MS/MS resolution 30,000, MIT was auto mode, dynamic exclusion duration 120 seconds. The start m/z for MS/MS was fixed to auto mode. Precursor for MS/MS scan satisfied: charge range 2+ to 6 + , top 30 precursors with intensity over 2E4. AGC was: MS 300%, MS/MS 100%.
Peptides separated by liquid phase chromatography were ionized by a nanoESI source and then passed to an Orbitrap Exploris480 (Thermo Fisher Scientific, San Jose,CA) to acquire mass spectrometry data in DIA mode. The main parameters were set: ion source voltage was set to 1.9 kV, MS1 mass spectrometer scanning range was 400 ~ 1250 m/z; resolution was set to 120,000; maximal injection time (MIT) 90 ms; 400 ~ 1250 m/z was equally divided to 50 continuous windows MS/MS scan. MS/MS collision type HCD, collision energy NCE 30; MIT was auto mode. Fragment ions were scanned in Orbitrap, MS/MS resolution 30,000. AGC was: MS 300%, MS/MS 1000%.
DIA data was analysed using the iRT peptides for retention time calibration. Then, based on the target-decoy model applicable to SWATH-MS, false positive control was performed with FDR 1% to obtain significant quantitative results. MSstats was used for the statistical evaluation of significant differences in proteins or peptides from different samples. The core algorithm is linear mixed effect model that pre-processes the data according to the predefined comparison group, and then performed the significance test based on the model. Thereafter, differential protein screening was performed based on the fold change >2 and p-value < 0.05 as the criterion for the significant difference.

Compound: C[C@@H]1C[C@@H]([C@H](O)CC2CC(=O)NC(=O)C2)C(=O)[C@@H](C)C1 [CHX, cycloheximide, reference compound]
- protein synthesis reporter signal (cap-dependent luciferase / IRES luciferase), replicate values [1]: 0.353 and 0.410 and 0.685 and 0.311 and 0.478 and 0.325

Compound: COc1ccc(-c2ccc3c(N4CCOC[C@@H]4C)nc(N4CCOC[C@@H]4C)nc3n2)cc1CO [AZD8055, reference compound]
- c-Myc, Average (c-Myc-activity; 1μM): 19.11
- CMV, Average (c-Myc-activity; 1μM): 86.61
- c-Myc, Average (c-Myc-activity; 10μM): 13.82
- CMV, Average (c-Myc-activity; 10μM): 130.75
- activity in c-Myc reporter assay (c-Myc-activity; SW620 cells, 1 or 10 µM, 24 hr): clearly inhibited activity

Compound: O=C(O)C1(c2ccc(Cl)cc2)CCCC1 [Compound 2, 1-(4-chlorophenyl)cyclopentane-1-carboxylic acid]
- Kd [2]: 7400 µM
- LE (ligand efficiency) [2]: 0.19 (kcal/mol)/heavy atom

Compound: CC[C@H](C(=O)N1CCCC[C@H]1C(=O)O[C@H](CCc1ccc(OC)c(OC)c1)c1ccccc1OCC(=O)NCCCCCCC(=O)N[C@H](C(=O)N1C[C@@H](O)C[C@@H]1C(=O)N[C@@H](C)c1ccc(-c2scnc2C)cc1)C(C)(C)C)c1cc(OC)c(OC)c(OC)c1 [neg-dTAG^V-1, reference compound]
- MCL1 protein after treatment (MCL1 protein expression): Loss of MCL1 protein was not observed

Compound: Oc1cccc(-c2ccccc2)c1 [Compound 1, [1,1'-biphenyl]-3-ol]
- Kd [2]: 400 µM
- LE (ligand efficiency) [2]: 0.36 (kcal/mol)/heavy atom

Compound: CC[C@H](C(=O)N1CCCC[C@H]1C(=O)O[C@H](CCc1ccc(OC)c(OC)c1)c1ccccc1OCC(=O)NCCCCCCC(=O)N[C@H](C(=O)N1C[C@H](O)C[C@H]1C(=O)N[C@@H](C)c1ccc(-c2scnc2C)cc1)C(C)(C)C)c1cc(OC)c(OC)c(OC)c1 [dTAG-v1]
- Normalised signal intensity, A2M ([3]; H1299 C2-2 dTAG clone): 17.256
- Normalised signal intensity, AAAS (first entry, r5) ([3]; H1299 C2-2 dTAG clone): 16.230
- Normalised signal intensity, AAAS (second entry, r6) ([3]; H1299 C2-2 dTAG clone): 19.251
- Normalised signal intensity, AACS ([3]; H1299 C2-2 dTAG clone): 16.229
- Normalised signal intensity, A2M ([3]; H1299 C3-1 dTAG clone): 17.317
- Normalised signal intensity, AAAS (first entry, r5) ([3]; H1299 C3-1 dTAG clone): 15.976
- Normalised signal intensity, AAAS (second entry, r6) ([3]; H1299 C3-1 dTAG clone): 18.995
- Normalised signal intensity, AACS ([3]; H1299 C3-1 dTAG clone): 16.150
- Normalised signal intensity, A2M ([3]; H1299 N2-1 dTAG clone): 17.029
- Normalised signal intensity, AAAS (first entry, r5) ([3]; H1299 N2-1 dTAG clone): 15.914
- Normalised signal intensity, AAAS (second entry, r6) ([3]; H1299 N2-1 dTAG clone): 19.083
- Normalised signal intensity, AACS ([3]; H1299 N2-1 dTAG clone): 15.496
- Normalised signal intensity, A2M ([3]; H1299 N3-2 dTAG clone): 16.465
- Normalised signal intensity, AAAS (first entry, r5) ([3]; H1299 N3-2 dTAG clone): 15.682
- Normalised signal intensity, AAAS (second entry, r6) ([3]; H1299 N3-2 dTAG clone): 18.655
- Normalised signal intensity, AACS ([3]; H1299 N3-2 dTAG clone): 16.041

Compound: CC(O)c1ccc(-c2ccccc2F)cc1 (stereo not drawn) [Compound 3, 1-{2'-fluoro-[1,1'-biphenyl]-4-yl}ethan-1-ol]
- Kd [2]: 20 µM
- improvement in affinity ([2]; compound 3 versus compound 1): 20 fold
- LE (ligand efficiency) [2]: 0.4 (kcal/mol)/heavy atom
